Format in all cases: in vivo
Data set [1] has as its system NeuT/ATTAC mice. Description: Tumor development and multiplicity in AP-treated NeuT/ATTAC mice on DMHCA diet. The settings on record: diet with 0.05% DMHCA (~100 mg/kg/day). An excerpt:
The derivation and characteristics of MMTV-PPARd mice was reported in Yuan et al., “PPARdelta Induces Estrogen Receptor-Positive Mammary Neoplasia Through an Inflammatory and Metabolic Phenotype Linked to mTOR Activation,” Cancer Res. 73(14):4349-4361 (2013), which is hereby incorporated by reference in its entirety. […] FAT-ATTAC mice on a C57BL/6 background (Pajvani et al., “Fat Apoptosis Through Targeted Activation of Caspase 8: A New Mouse Model of Inducible and Reversible Lipoatrophy,” Nat. Med. 11(7):797-803 (2005); Landskroner-Eiger et al., “Morphogenesis of the Developing Mammary Gland. Stage-Dependent Impact of Adipocytes,” Dev. Biol. 344(2):968-978 (2010), each of which is hereby incorporated by reference in its entirety) were crossed into the FVB strain for several generations. Derivation of NeuT/ATTAC mice was reported in Yuan et al., “MMTV-NeuT/ATTAC Mice: A New Model for Studying the Stromal Tumor Microenvironment,” Oncotarget. 9(8):8042-8053 (2018), which is hereby incorporated by reference in its entirety. All animals were fed LabDiet 5303 and monitored for the NeuT, PPARd, and/or FKBPv-caspase 8 transgenes by genotyping.
(§1) Fibrosis was induced in mice at 6 w.o.a. by weekly i.p. injections of 0.4 mg/kg AP dissolved in vehicle (4% ethanol, 10% PEG-400, and 1.75% Tween-20 in water). Mice were maintained on LabDiet 5053 chow supplemented with 0.05% DMHCA (100 mg/kg) beginning at 8 w.o.a. Control mice received the standard diet.
Statistical significance was evaluated using the Mantel-Cox log-rank test for survival analysis and Prism GraphPad software or the two-tailed Student's t test to evaluate differences between means at a significance of P<0.05.
A study was designed to evaluate whether DMHCA treatment could abrogate tumor development in NeuT/ATTAC mice treated with AP.

Data set [2] has as its system NeuT/ATTAC mice. As to the kind of experiment: FACS analysis of immune cell subsets in tumor infiltrates and spleen. The protocol: as §1
To assess whether DMHCA treatment could reduce immune tolerance in NeuT/ATTAC mice, a model that is highly resistant to PD-1 immunotherapy, spleen and tumor immune infiltrates were analyzed by FACS (FIGS. 6A-6C).
A general note: In flow cytometry, cells or beads pass a laser one at a time.

For data set [3], the system named is tumors from NeuT/ATTAC mice. As to the kind of experiment: Immunohistochemistry of FFPE tumor sections. How it is done:
as §1
Mammary tissue was excised and FFPE sections were prepared (Yuan et al., “MMTV-NeuT/ATTAC Mice: A New Model for Studying the Stromal Tumor Microenvironment,” Oncotarget. 9(8):8042-53 (2018); Yuan et al., “PPARdelta Induces Estrogen Receptor-Positive Mammary Neoplasia Through an Inflammatory and Metabolic Phenotype linked to mTOR Activation,” Cancer Res. 73(14):4349-4361 (2013); Yin et al., “Peroxisome Proliferator-Activated Receptor Delta and Gamma Agonists Differentially Alter Tumor Differentiation and Progression During Mammary Carcinogenesis,” Cancer Res. 65:3950-3957 (2005); Yin et al., “Inhibition of Peroxisome Proliferator-Activated Receptor Gamma Increases Estrogen Receptor-Dependent Tumor Specification,” Cancer Res. 69(2):687-694 (2009), each of which is hereby incorporated by reference in its entirety). Primary antibodies: PD-L1 (1:200, 17952-1-AP, Proteintech), SMA (1:100, sc130617, Santa Cruz), Ki67 (1:50, CRM325, Biocare), CD31 (1:100, ab56299, Abcam), CXCL1 (1:120, sc-1374, Santa Cruz), F4/80 (1:30, 14-4801-85, eBioscience), Foxp3 (1:50, 14-5773-82, e Bioscience), CD8a (1:40, 14-0808-82, eBioscience). Collagen was stained with Picrosirius Red stain (Yuan et al., “MMTV-NeuT/ATTAC Mice: A New Model for Studying the Stromal Tumor Microenvironment,” Oncotarget. 9(8):8042-53 (2018), which is hereby incorporated by reference in its entirety).

Data set [4] has as its system tumors from NeuT/ATTAC mice. Description: FLIM and SHG microscopy of tumor sections. The settings on record: DMHCA-treated tumor vs control tumor. An excerpt:
SHG imaging using a multiphoton microscope equipped with a Deep Imaging Via Emission Recovery (DIVER) detector (Crosignani et al., “Deep Tissue Fluorescence Imaging and in Vivo Biological Applications,” J. Biomed. Opt. 17(11):116023 (2012), which is hereby incorporated by reference in its entirety) can distinguish collagen accumulation in the early stages of fibrosis unlike standard histological analysis (Dvornikov & Gratton, “Imaging in Turbid Media: A Transmission Detector Gives 2-3 Order of Magnitude Enhanced Sensitivity Compared to Epi-Detection Schemes,” Biomed. Opt. Express 7:3747-755 (2016); Ranjit et al., “Label-Free Fluorescence Lifetime and Second Harmonic Generation Imaging Microscopy Improves Quantification of Experimental Renal Fibrosis,” Kidney Int. 90:1123-1128 (2016), each of which is hereby incorporated by reference in its entirety). DIVER, by virtue of detection in the direction of light propagation is especially suitable for SHG detection and a combination of SHG and FLIM enables spatial mapping of collagen I and III, which is important for fibrosis. Additionally, this type of imaging is applicable to unstained tissues, which eliminates the uncertainty from issues associated with labeling efficiency. Moreover, the same tissue can be used for other purposes after imaging is complete. […]

The mark [5] stands for this setting: NeuT/ATTAC mice, DMHCA from two months of age.

On to `C[C@H](CCC(=O)N(C)C)[C@H]1CC[C@H]2[C@@H]3CC=C4C[C@@H](O)CC[C@]4(C)[C@H]3CC[C@]12C` [DMHCA, dimethyl-3-beta-hydroxy-cholenamide], for which the tumor development entry in the data set with NeuT/ATTAC mice [1] (NeuT/ATTAC mice treated with AP, FIG. 5A) is on record as “reduction in tumor development”. Moreover, the “decrease in tumor multiplicity” value with NeuT/ATTAC mice [1] (NeuT/ATTAC mice treated with AP, FIG. 5B) amounted to 10 fold. Further, the “toxicity of dietary dose” value in the data set on NeuT/ATTAC mice [1] was “nontoxic”. The “PD1+/Foxp3+ CD4+ T cells” value with NeuT/ATTAC mice [2] (setting [5]) is given as “increase”. Further, in the data set on NeuT/ATTAC mice [2] (spleen, vs control), the “CD4+ effector T cells” value is “enhanced”, the “CD8+ effector T cells” value was “enhanced”, the G-MDSC result is listed as “reduced” and the Treg cells result is reported as “markedly reduced”. For the same compound, in the data set with NeuT/ATTAC mice [2] (tumor infiltrates, vs control), the “CD4+ effector T cells” value was “increased”, the “CD8+ effector T cells” value was “increased”, the G-MDSC entry is recorded as “reduced” and the M-MDSC entry was “reduced”. Besides, in the data set on NeuT/ATTAC mice [2] (tumor infiltrates, vs control), the Treg result is listed as “reduced”. Further, the CXCL1 expression result in data set [3] (IHC of tumors, FIG. 7) is given as “reduced CXCL1 expression”. Moreover, in data set [3] (setting [5]), the “fibroblast activation protein expression” value is “reduced” and the “smooth muscle actin expression” value is “reduced”. Further, in data set [4] (FIG. 8C-8D), the “collagen I & collagen III detected by FLIM” value was “little collagen”. The “collagen I by SHG microscopy” value in data set [4] (FIG. 8E-8G) is on record as “markedly reduced”.

Values taken from patent US20220305031A1, “METHODS FOR REDUCING TUMOR PROGRESSION AND FIBROSIS AND INCREASING ADAPTIVE IMMUNITY IN MALIGNANCIES” (GEORGETOWN UNIVERSITY, priority 2019, published 2022).
